The values that follow come from patent EP4541885A1, “OPTIMIZED PHLOROGLUCINOL SYNTHASES” (priority 2023, dated 2025).

Assay in all cases: Kinetic parameters determination (HPLC monitoring of MLC consumed and CoA produced)
The target of data set [1] is T1, Tsukamurella pulmonis phloroglucinol synthase PhlD_Tpu WT, wild type, SEQ ID NO: 1 (Tsukamurella pulmonis, UniProt A0A1H1FBR5).
T1 sequence (A0A1H1FBR5 1-390): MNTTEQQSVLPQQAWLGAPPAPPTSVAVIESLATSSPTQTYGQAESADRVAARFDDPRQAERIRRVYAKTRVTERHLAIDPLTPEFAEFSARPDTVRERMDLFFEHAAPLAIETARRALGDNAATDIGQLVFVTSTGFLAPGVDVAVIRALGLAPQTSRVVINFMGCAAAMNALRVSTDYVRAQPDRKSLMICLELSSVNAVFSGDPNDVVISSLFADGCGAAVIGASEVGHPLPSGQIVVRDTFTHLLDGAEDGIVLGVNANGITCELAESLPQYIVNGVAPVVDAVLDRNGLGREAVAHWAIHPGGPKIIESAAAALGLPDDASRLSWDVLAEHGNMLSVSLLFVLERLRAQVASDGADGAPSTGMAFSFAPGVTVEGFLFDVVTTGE
In kind it is biochemical. The conditions noted are these: MLC 5-100 µM, sodium phosphate buffer 50 mM pH 7, 30°C, 0.5 µM pure enzyme. As to the method:
(§1) The selected PhlD_Tpu sequences are amplified from the yeast expression plasmid and fused with a 6xHis tag encoded at the C-terminus. This fusion is inserted into the pET26b(+) plasmid, between the XhoI and NdeI restriction sites (as shown in Figure 4), with the […] controlling its expression. The recombinant plasmid is used to transform E. coli BL21(DE3) competent cells, which are grown in LB medium (10 g/L NaCl, 10 g/L Tryptone, 5 g/L yeast extract) at 37° C with shaking, in a final volume of 500 mL. The expression of the recombinant plasmid is initiated by adding 0.1 mM of IPTG when the OD600nm reaches 0.4-0.5. The cells are then allowed to grow overnight at 20°C until they reach an OD600nm of approximately 1.5-1.6.
(§2) E. coli BL21(DE3) cells transformed as described in paragraph 1.2.4 above were disrupted by Fast-Prep at a speed setting of 6 m/sec for 3 cycles of 45 sec. The supernatant is filtered on a 0.45 µm membrane before being applied to a 1 mL Talon® Resin column. The column is washed first with 10 column volumes of sodium phosphate buffer (50 mM, pH7; NaCl 100 mM) and with 10 column volumes of sodium phosphate buffer with 10 mM of imidazole ([…], Phosphate buffer 50 mM, 500 mM imidazole pH 8.5; 100mM NaCl). Protein elution is performed using 150 mM imidazole in sodium phosphate buffer (50 mM pH 7, NaCl 100mM). Collected fractions are pooled and diafiltrated using 5 volumes of sodium phosphate buffer (50 mM pH 7, NaCl 100mM) using a 30 kDa diafiltration unit (Amicon ®Ultra, Merck) before reducing the volume to 500 µL.
(§3) The concentrate is applied on a gel filtration column (S200 TRICORN 10/300 Superdex 200). Elution is performed with an isocratic gradient of sodium phosphate buffer (50 mM pH 7, NaCl 100mM). The purity of the various fractions obtained is checked by SDS-PAGE (Mini-PROTEAN TGX Stain-Free Gels, Bio Rad)
(§4) In order to access the kinetic parameters of PhlD_Tpu, the concentrations of MLC consumed and CoA produced were monitored by HPLC. The experiments were run for 120 sec and only the linear part of CoA variation with time was used to calculate initial velocity. The experiments were carried using a range of MLC concentrations (5-100 µM) in sodium phosphate buffer (50 mM pH 7), at 30°C, and with 0.5 µM of pure enzyme. At 10, 20, 30, 50, 60 and 120 sec, 100 µL aliquots of the reaction mixture were quenched with 10 µL of 10% (v/v) formic acid and kept at room temperature before HPLC analysis. With these conditions, the CoA production increased linearly with time until 50 sec. Table 7: HPLC conditions for MLC and CoA separation and quantification.

Data set [2] has as its system Tsukamurella pulmonis phloroglucinol synthase PhlD_Tpu variant M27 (A124P, A154P, S177A, S236P, E268Q, E271R, A298D), SEQ ID NO: 3. It is filed as biochemical. The procedure: as §1, §2, §3, §4
The subject of data set [3] is CC(C)(COP(=O)(O)OP(=O)(O)OC[C@H]1O[C@@H](n2cnc3c(N)ncnc32)[C@H](O)[C@@H]1OP(=O)(O)O)[C@@H](O)C(=O)NCCC(=O)NCCSC(=O)CC(=O)O. It is filed as biochemical, Tsukamurella pulmonis. The conditions noted are these: other: MLC 5-100 µM, sodium phosphate buffer 50 mM pH 7, 30°C, 0.5 µM pure enzyme. As to the method: as §1, §2, §3, §4
Substrate in data set [4]: CC(C)(COP(=O)(O)OP(=O)(O)OC[C@H]1O[C@@H](n2cnc3c(N)ncnc32)[C@H](O)[C@@H]1OP(=O)(O)O)[C@@H](O)C(=O)NCCC(=O)NCCSC(=O)CC(=O)O
It is filed as biochemical, Tsukamurella pulmonis. To be noted: other: MLC 5-100 µM, sodium phosphate buffer 50 mM pH 7, 30°C, 0.5 µM pure enzyme. The procedure: as §1
E. coli BL21(DE3) cells transformed as described in paragraph 1.2.4 above were disrupted by Fast-Prep at a speed setting of 6 m/sec for 3 cycles of 45 sec. The supernatant is filtered on a 0.45 µm membrane before being applied to a 1 mL Talon® Resin column. […]
In order to access the kinetic parameters of PhlD_Tpu, the concentrations of MLC consumed and CoA produced were monitored by HPLC. […] Table 7: HPLC conditions for MLC and CoA separation and quantification.
The source holds these as a separate data set.

Broadly, the kcat is the maximal rate divided by the concentration of active sites. Regarding `CC(C)(COP(=O)(O)OP(=O)(O)OC[C@H]1O[C@@H](n2cnc3c(N)ncnc32)[C@H](O)[C@@H]1OP(=O)(O)O)[C@@H](O)C(=O)NCCC(=O)NCCSC(=O)CC(=O)O` [malonyl-CoA], the turnover number (kcat) in data set [1] was determined as 0.38 s⁻¹. Also, the “kcat reduced by a factor (M27 vs PhlD_Tpu WT)” value in data set [2] (factor of reduction relative to PhlD_Tpu WT) is reported as 1.3. Further, in data set [2] (relative to PhlD_Tpu WT), the “KM relative to PhlD_Tpu WT” value is “twice lower” and the “catalytic efficiency, times higher compared to PhlD_Tpu WT” value stood at 1.6.

In general, Km refers to the substrate concentration at which the rate is half of its maximum. As a reminder, the kcat/Km is the second-order rate constant that governs catalysis at low substrate concentration. Take “Tsukamurella pulmonis phloroglucinol synthase PhlD_Tpu variant M27 (A124P, A154P, S177A, S236P, E268Q, E271R, A298D), SEQ ID NO: 3 (Tsukamurella pulmonis; A124P/A154P/A298D/E268Q/E271R/S177A/S236P)”: in data set [3], the Km was 4.9 ± 0.544 µM, the kcat was determined as 0.28 ± 0.06 s⁻¹ and the kcat/Km was 57000 M⁻¹ s⁻¹.

B1: Tsukamurella pulmonis phloroglucinol synthase PhlD_Tpu WT, wild type, SEQ ID NO: 1 (Tsukamurella pulmonis) (protein)
chain: MNTTEQQSVLPQQAWLGAPPAPPTSVAVIESLATSSPTQTYGQAESADRVAARFDDPRQAERIRRVYAKTRVTERHLAIDPLTPEFAEFSARPDTVRERMDLFFEHAAPLAIETARRALGDNAATDIGQLVFVTSTGFLAPGVDVAVIRALGLAPQTSRVVINFMGCAAAMNALRVSTDYVRAQPDRKSLMICLELSSVNAVFSGDPNDVVISSLFADGCGAAVIGASEVGHPLPSGQIVVRDTFTHLLDGAEDGIVLGVNANGITCELAESLPQYIVNGVAPVVDAVLDRNGLGREAVAHWAIHPGGPKIIESAAAALGLPDDASRLSWDVLAEHGNMLSVSLLFVLERLRAQVASDGADGAPSTGMAFSFAPGVTVEGFLFDVVTTGE
Consider B1, for which the Km in data set [4] is given as 10.52 µM.
